This note sets out measurements from patent US11690810B2, “Combination treatment of bacterial infection” (The Chinese University of Hong Kong, priority 2018, dated 2023).

Read-outs that look alike come from different tables or passages of the source. A value given as a limit tells only on which side of the number the result lay.

Assay [1] deals with clinical fusidic acid resistant MRSA strain 82356. Put plainly: MIC and checkerboard (FIC) assay. The class given is cell-based, Staphylococcus aureus.
Assay [2] concerns clinical fusidic acid resistant MRSA strain 73621. Put plainly: MIC and checkerboard (FIC) assay. The class given is cell-based, Staphylococcus aureus.
Assay [3] relates to clinical fusidic acid resistant MRSA strain 96591. Put plainly: MIC and checkerboard (FIC) assay. The format is cell-based, Staphylococcus aureus.
Assay [4] concerns S. aureus SA-ANT4′ (ANT4), resistant to fusidic acid. Put plainly: MIC and checkerboard (FIC) assay.
The test system of assay [5] is S. aureus SA-RN4220-pUL5054 (RN4220). Description: MIC and checkerboard (FIC) assay. As to conditions: Staphylococcus aureus.
The subject of another assay is CA-MRSA strain ST30. Put plainly: MIC and checkerboard (FIC) assay. The format is cell-based, Staphylococcus aureus. As to conditions: Staphylococcus aureus, MRSA.
The next assay concerns MRSA SA-ST239. Description: MIC and checkerboard (FIC) assay. As to conditions: for FIC / MIC combine: ST239.
Assay [6] relates to S. aureus SA-APH2″-AAC6′ (APH2), resistant to gentamicin. Description: MIC and checkerboard (FIC) assay.
For assay [7], the system named is S. aureus SA-APH3′ (APH3), resistant to kanamycin. Put plainly: MIC and checkerboard (FIC) assay. As to conditions: Staphylococcus aureus; for MIC: read-out: Minimum inhibitory concentration to compound (MIC).
For assay [8], the system named is S. aureus SA-1199B (NorA efflux pump overexpressed). Put plainly: MIC and checkerboard (FIC) assay. As to conditions: Staphylococcus aureus; for MIC: read-out: Minimum inhibitory concentration to compound (MIC), 1199B′, Table 8.
Assay [9] concerns S. aureus ATCC25923 (methicillin sensitive). Description: MIC and checkerboard (FIC) assay. As to conditions: Staphylococcus aureus.
Assay [10] has as its system panel of laboratory MRSA strains. Put plainly: MIC and combination tests, panel of laboratory strains. As to conditions: tanshinone highest tested concentration 128 μg/ml.
The test system of the next assay is HA MRSA W231. Description: MIC and checkerboard (FIC) assay.
Another assay concerns HA MRSA W233. Put plainly: MIC and checkerboard (FIC) assay.
The next assay relates to HA MRSA W238. Description: MIC and checkerboard (FIC) assay.
The mark [11] stands for this setting: Staphylococcus aureus, read-out: MIC alone.
[12] abbreviates: read-out: Activity (MIC, μg/ml).
Setting [13] is: Staphylococcus aureus, MRSA, read-out: Activity (MIC, μg/ml).
Where [14] appears, read: ST30, Table 8, read-out: Minimum inhibitory concentration to compound (MIC).
[15] abbreviates: ST30, read-out: Activity (MIC, μg/ml).
[16] abbreviates: Staphylococcus aureus, read-out: Minimum inhibitory concentration to compound (MIC).
Setting [17] is: read-out: Minimum inhibitory concentration to compound (MIC).
The mark [18] stands for this setting: Staphylococcus aureus, MRSA, read-out: MIC alone.
Setting [19] is: APH2″-AAC6′, ECG with WQD-169 (Kuraridin).
[20] abbreviates: Staphylococcus aureus, read-out: MIC 99.9.

Take `CC(=O)O[C@H]1C[C@@]2(C)[C@@H](C[C@@H](O)[C@H]3[C@@]4(C)CC[C@@H](O)[C@@H](C)[C@@H]4CC[C@@]32C)/C1=C(\CCC=C(C)C)C(=O)O` [Fusidic acid, fusidic acid, reference compound]: the FIC in assay [1] (82356, ECG+Kur+Fus) is reported as 0.03; in assay [2] (73621, ECG+Kur+Fus), 0.03; in [3] (96591, ECG+Kur+Fus), 0.03; in assay [4] (ANT4, ECG+Kur+Fus), 0.125. Besides, the MIC combine in assay [1] (82356, ECG+Kur+Fus) turned out to be 1 µg/mL; in assay [2] (73621, ECG+Kur+Fus), 1 µg/mL; in assay [3] (96591, ECG+Kur+Fus), 1 µg/mL; in [4] (ANT4, ECG+Kur+Fus), 4 µg/mL; in assay [4] (ANT4, ECG+Kur+Fus, listed as Fus) it was 8 µg/mL. Also, the MIC was determined as 32 µg/mL in assay [1] (Staphylococcus aureus, MRSA, 82356 (fusidic acid resistant), read-out: MIC alone); 32 µg/mL in [2] (Staphylococcus aureus, MRSA, 73621 (fusidic acid resistant), read-out: MIC alone); 32 µg/mL in assay [3] (Staphylococcus aureus, MRSA, 96591 (fusidic acid resistant), read-out: MIC alone); 64 µg/mL in assay [4] (setting [11]).
Regarding `C=C(C)C(CC=C(C)C)Cc1c(OC)cc(OC)c(C(=O)/C=C/c2ccc(O)cc2O)c1OC` (stereo not drawn) [Compound B], in assay [5] (setting [12]), the MIC came out at 64 µg/mL.
Same read-out and setting: with `C=C(C)C(CC=C(C)C)Cc1c(OC)cc(OC)c(C(=O)/C=C/c2ccc(OCOC)cc2OCOC)c1OC` (stereo not drawn) [Compound A] the figure was > 256 µg/mL.
With `C=C(C)C(CC=C(C)C)Cc1c(OC)cc(OC)c(C(=O)/C=C/c2ccc(O)cc2)c1OC` (stereo not drawn) [WQD-101], the MIC (with CA-MRSA strain ST30 (setting [12]); in assay [5] (setting [12]); in the assay on MRSA SA-ST239 (setting [13])) was > 256 µg/mL throughout.
On to `C=C(C)C(CC=C(C)C)Cc1c(O)cc(OC)c(C(=O)/C=C/c2ccc(O)cc2OC)c1O` (racemic) [WQD-164, (E)-1-(2,4-dihydroxy-6-methoxy-3-(5-methyl-2-(prop-1-en-2-yl)hex-4-en-1-yl)phenyl)-3-(4-hydroxy-2-methoxyphenyl)prop-2-en-1-one], for which the MIC in the assay with CA-MRSA strain ST30 (setting [14]) amounted to 128 µg/mL; in the assay on CA-MRSA strain ST30 (setting [15]) it was 128 µg/mL; in assay [6] (setting [11]), 16 µg/mL; in assay [6] (setting [16]), 16 µg/mL; in [7] it was 32 µg/mL; in assay [4] (setting [16]), 32 µg/mL. Further, the MIC in assay [5] (setting [17]) is 64 µg/mL; in [8], 64 µg/mL; in the assay on MRSA SA-ST239 (setting [13]), 32 µg/mL; in the assay on MRSA SA-ST239 (setting [18]), 32 µg/mL. Besides, the FIC in assay [6] (APH2″-AAC6′, ECG with WQD-164) turned out to be 0.50; in the assay on MRSA SA-ST239 (ECG with WQD-164), 0.50. The MIC combine in assay [6] (APH2″-AAC6′, ECG with WQD-164) is 8 µg/mL; in the assay with MRSA SA-ST239 (ECG with WQD-164), 4 µg/mL.
Consider `C=C(C)C(CC=C(C)C)Cc1c(O)cc(OC)c(C(=O)/C=C/c2ccc(O)cc2O)c1O` (stereo not drawn) [WQD-169, (E)-1-(2,4-dihydroxy-6-methoxy-3-(5-methyl-2-(prop-1-en-2-yl)hex-4-en-1-yl)phenyl)-3-(2,4-dihydroxyphenyl)prop-2-en-1-one], for which the MIC (in the assay on CA-MRSA strain ST30 (setting [14]); in the assay with CA-MRSA strain ST30 (setting [15]); in [6] (setting [16]); in [7]; in assay [4] (setting [16]); in assay [5] (setting [17])) was 8 µg/mL throughout. For the same compound, the MIC (in [8]; in the assay with MRSA SA-ST239 (setting [13]); with MRSA SA-ST239 (setting [18])) was 8 µg/mL in each case. Moreover, the FIC turned out to be 0.25 in assay [6] (setting [19]) and 0.5 in the assay on MRSA SA-ST239 (ECG with WQD-169 (Kuraridin)). Moreover, the MIC combine is 2 µg/mL in assay [6] (setting [19]) and 4 µg/mL in the assay on MRSA SA-ST239 (ECG with WQD-169 (Kuraridin)). The MIC alone in assay [6] (Strain APH2″-AAC6′, Table 9) was 8 µg/mL.
With `C=C(C)C(CC=C(C)C)Cc1c(O)cc(OC)c(C(=O)/C=C/c2ccccc2O)c1O` (stereo not drawn) [WQD-165], the MIC amounted to 32 µg/mL in the assay with CA-MRSA strain ST30 (setting [14]); 32 µg/mL in the assay on CA-MRSA strain ST30 (setting [15]); 4 µg/mL in assay [6] (setting [11]); 4 µg/mL in assay [6] (setting [16]); 4 µg/mL in assay [7]; 8 µg/mL in assay [4] (setting [16]). Further, the MIC in assay [5] (setting [17]) came to 8 µg/mL; in assay [8] it was 8 µg/mL; in the assay on MRSA SA-ST239 (setting [13]), 4 µg/mL; in the assay on MRSA SA-ST239 (setting [18]), 4 µg/mL. The FIC in assay [6] (APH2″-AAC6′, ECG with WQD-165) was 1; with MRSA SA-ST239 (ECG with WQD-165) it was 1. In addition, the MIC combine in [6] (APH2″-AAC6′, ECG with WQD-165) was found to be 4 µg/mL; with MRSA SA-ST239 (ECG with WQD-165) it was 4 µg/mL.
With `C=C(C)C(CC=C(C)C)Cc1c(OC)cc(OC)c(C(=O)/C=C/c2ccc(OCc3ccccc3)cc2OCc2ccccc2)c1OC` (stereo not drawn) [WQD-8], the MIC (with CA-MRSA strain ST30 (setting [12]); in assay [5] (setting [12]); in the assay on MRSA SA-ST239 (setting [13])) was > 256 µg/mL throughout.
With `C=C(C)C(CC=C(C)C)Cc1c(O)cc(OC)c(C(=O)/C=C/c2ccc(O)cc2)c1O` (stereo not drawn) [WQD-175], the MIC came to 16 µg/mL in the assay on CA-MRSA strain ST30 (setting [14]); 16 µg/mL in the assay with CA-MRSA strain ST30 (setting [15]); 4 µg/mL in [6] (setting [11]); 4 µg/mL in assay [6] (setting [16]); 4 µg/mL in assay [7]; 8 µg/mL in assay [4] (setting [16]). The MIC in assay [5] (setting [17]) is 8 µg/mL; in assay [8], 8 µg/mL; with MRSA SA-ST239 (setting [13]), 4 µg/mL; in the assay on MRSA SA-ST239 (setting [18]), 4 µg/mL. Moreover, the FIC in assay [6] (APH2″-AAC6′, ECG with WQD-175) is reported as 1; in the assay with MRSA SA-ST239 (ECG with WQD-175), 1. In addition, the MIC combine stood at 4 µg/mL in assay [6] (APH2″-AAC6′, ECG with WQD-175) and 4 µg/mL with MRSA SA-ST239 (ECG with WQD-175).
Take `O=C(O)c1cc(O)c(O)c(O)c1` [Gallic acid, 3,4,5-trihydroxybenzoic acid]: the MIC90 in assay [6] (Staphylococcus aureus) was 512 µg/mL; in assay [7], 512 µg/mL; in assay [4] (Staphylococcus aureus), 512 µg/mL; in assay [5], 512 µg/mL; in assay [8], 512 µg/mL; in the assay with MRSA SA-ST239 (Staphylococcus aureus, MRSA) it was 256 µg/mL. In assay [9] (ATCC25923), the MIC90 is 256 µg/mL. Besides, the MIC99 in [6] (setting [20]) is > 512 µg/mL; in assay [7] (read-out: MIC 99.9), > 512 µg/mL; in [4] (setting [20]) it was > 512 µg/mL; in assay [5] (read-out: MIC 99.9), > 512 µg/mL; in assay [8] (read-out: MIC 99.9) it was > 512 µg/mL; in the assay on MRSA SA-ST239 (Staphylococcus aureus, MRSA, read-out: MIC 99.9), > 512 µg/mL. The MIC99 in assay [9] (ATCC25923, read-out: MIC 99.9) was > 512 µg/mL. In assay [10], the “activity against the tested MRSA strains when used alone” value was “relatively weak”.
Consider gentamicin [reference compound], for which the MIC alone in assay [6] (APH2 (gentamicin resistant)) was > 512 µg/mL; in assay [6] (APH2 (gentamicin resistant), listed as Gen), 512 µg/mL; in the assay with HA MRSA W231 (W231 (gentamicin resistant)), 64 µg/mL; in the assay on HA MRSA W233 (W233 (gentamicin resistant)), 512 µg/mL; with HA MRSA W238 (W238 (gentamicin resistant)), 512 µg/mL. Further, the FIC in [6] (APH2, ECG+Kur+Gen) was 0.0312; in the assay with HA MRSA W231 (W231, ECG+Kur+Gen) it was 0.015; in the assay with HA MRSA W233 (W233, ECG+Kur+Gen) it was 0.03; in the assay with HA MRSA W238 (W238, ECG+Kur+Gen) it was 0.03. Also, the MIC combine in [6] (APH2, ECG+Kur+Gen) was determined as 16 µg/mL; in the assay on HA MRSA W231 (W231, ECG+Kur+Gen), 1 µg/mL; with HA MRSA W233 (W233, ECG+Kur+Gen), 16 µg/mL; in the assay on HA MRSA W238 (W238, ECG+Kur+Gen) it was 16 µg/mL.
As to `C=C(C)C(CC=C(C)C)Cc1c(OC)cc(OC)c(C(=O)/C=C/c2ccccc2O)c1OC` (stereo not drawn) [WQD-98], the MIC (in the assay on CA-MRSA strain ST30 (setting [12]); in [5] (setting [12]); in the assay on MRSA SA-ST239 (setting [13])) was > 256 µg/mL each time.

As a reminder, the MIC90 is the lowest concentration that inhibits either 90% of growth or 90% of the strains tested, depending on the study.
